Source: patent US8277860B2, “Method of stabilizing 1,4-dihydroxy-2-naphthoic acid” (Meiji Co., Ltd., priority 2003, dated 2012)

How the values were obtained:
[1] = Nitrogen gas substitution test: DHNA content during preparation and preservation of DHNA-containing plain yogurt; type: physicochemical
Protocol: (§1) A 5 ml portion of each sample was passed through a solid phase extraction column (Oasis HLB, manufactured by Waters Corporation) conditioned with 5 ml of methanol and 4 ml of 1% (w/v) sodium ascorbate aqueous solution. After washing with 5 ml of an aqueous solution of 1% (w/v) sodium ascorbate and elution with 4 ml of an aqueous solution of 10% (w/v) sodium ascorbate/methanol (1:9), the thus obtained eluate was concentrated under reduced pressure. A 1 ml portion thereof was sampled and filled up with the aforementioned sodium ascorbate-containing methanol. The mixture was filtered through a 0.5 μm filter and subjected to HPLC (column: Cadenza CD-C18 (4.6×150 mm, manufactured by Imtact Corporation), mobile phase: acetonitrile, methanol, water and acetic acid (10:20:200:0.1, vol/vol/vol/vol, adjusted to pH 7 with aqueous ammonia), detector: UV detector, detection wavelength: 254 nm, flow rate: 1.5 ml/min, column temperature: 45° C., sample injection: 20 μl). […]
The DHNA content contained in the plain yogurt was measured in accordance with the aforementioned test example, at respective steps of before pasteurization of the mix, after pasteurization of the same, just after inoculation of the bulk starter and completion of the fermentation, and after the lapse of the preservation for 1 week and 2 weeks, according to the production of plain yogurt of this Example.

[2] = Nitrogen gas substitution test: DHNA content during preservation of DHNA-containing vegetable drink; type: physicochemical; conditions: vegetable drink with ascorbic acid; nitrogen bubbled until dissolved oxygen 5 ppm; pasteurized 140° C. 3 seconds; ordinary temperature (25° C.) preservation, 2 months
Protocol: as §1, with “μl). A calibration curve was prepared by preparing a 1 mg/ml (methanol solution) standard stock solution of a DHNA preparation (046-22422, manufactured by Wako Pure Chemical Industries, Ltd.) and using the solution after optionally diluting with methanol.” for “μl).”

O=C(O)c1cc(O)c2ccccc2c1O [DHNA, 1,4-dihydroxy-2-naphthoic acid]
DHNA content after heat pasteurization in comparison with the content before heat pasteurization ([1]; control plain yogurt mix without nitrogen gas bubbling (dissolved oxygen about 10 ppm), heating at 95° C. for 5 minutes): about 30%
loss of DHNA during the preparation and preservation ([1]; plain yogurt mix bubbled with nitrogen gas (dissolved oxygen less than 1 ppm), pasteurized 95° C. 5 minutes, fermented 43° C. 4 hours, preserved in the dark at 10° C. for 2 weeks): almost completely inhibited
reduction of the DHNA content during preservation [2]: can be inhibited for a prolonged period of time
